Measured values taken from patent publication US11446281B2, “Anti-inflammatory composition comprising acylhydrazone derivative” (KOREA RESEARCH INSTITUTE OF BIOSCIENCE AND BIOTECHNOLOGY, priority 2018, dated 2022).

What was measured:
[1] = system: ear skin tissue of dermatitis-induced mice; assay: Histopathological analysis (Hematoxylin and Eosin) of ear skin tissue; format: in vivo, mouse; settings: H&E staining, FIG. 5
Excerpt: For pathological observation of the skin after completion of the application experiment, an ear skin tissue of each mouse was collected and stained with Hematoxylin and Eosin.

K14 and K1 mRNA = assay: qPCR of epidermal hyperplasia markers in ear skin tissue of dermatitis-induced mice; format: in vivo, mouse; settings: FIG. 8A and 8B
Excerpt: When dermatitis is induced, pathological symptoms such as epidermal hyperplasia which thickens the skin are induced.

[2] = system: mouse model having dermatitis induced by oxazolone (back skin); assay: Visual identification of dermatitis inhibition, mice with oxazolone-induced dermatitis on back; format: in vivo, HR-1 (hairless) mouse; settings: 150 μl at 500 nM applied 5 times a week, total 19 times, FIG. 1
Experimental: Specifically, 150 μl of 5% oxazolone (4-ethoxymethylene-2-phenyl-2-oxazolin-5-one) was applied to a back skin of a 6-week-old HR-1 (hairless) mouse, and then 150 μl of oxazolone (4-ethoxymethylene-2-phenyl-2-oxazolin-5-one) diluted into 0.1% was applied thereto 3 times a week, 11 times in total. Thus, the back skin inflammatory reaction was induced. Thereafter, 150 μl of the acylhydrazone derivative compound at a concentration of 500 nM was applied thereto 5 times a week, a total of 19 times. […] A negative control treated with only ethanol as a solvent and a positive control treated with only oxazolone were reflected in the test. The number of mice in each test group was maintained at 10 or more, and the experiment was repeated twice.

[3] = system: K14 (Keratin 14), K1 (Keratin 1), FLG (Filaggrin gene) mRNA; assay: qPCR of epidermal hyperplasia markers in back skin tissue of dermatitis-induced mice; format: in vivo, HR-1 (hairless) mouse; settings: FIG. 3B to 3D
Excerpt: When dermatitis is induced, a pathological symptom such as epidermal hyperplasia which thickens the skin is induced.

[4] = system: IL-4, IL-13 and IL-2 mRNA; assay: qPCR of inflammatory cytokine mRNA in back skin tissue of dermatitis-induced mice; format: in vivo, HR-1 (hairless) mouse; settings: FIG. 2A to 2C; for inflammatory cytokine expression compared with Cyclosporine A group: comparison with test group treated with Cyclosporine A; for expression level of the inflammatory cytokine (IL-4, IL-13, IL-2 mRNA) in skin tissue: vs positive control treated with only oxazolone, qPCR
Excerpt: Inflammatory cytokines most associated with development of dermatitis such as atopic dermatitis are known as IL-4 and IL-13 which are secreted primarily from Th2 T cells. To further identify the anti-inflammatory effect of the acylhydrazone derivative compounds in mice in which dermatitis is induced by oxazolone. A mRNA level of IL-2 as secreted from Th2 T cells and mRNA levels of IL-4 and IL-13 as the cytokines most closely related to the development of dermatitis in the inflammatory tissue were quantified.
Specifically, a skin tissue was collected from the dermatitis-induced mice produced in Example 1 and crushed using a tissue disruptor. The crushed tissue powder was dissolved in a solution of Trizol reagent (Sigma company), and RNA was extracted therefrom using an RNeasy mini kit (Qiagen company). The extracted RNA was reverse transcribed into cDNA using an ImProm-II™ Reverse Transcription kit (Promega company). Then, using a CFX96™ Real-Time PCR Detection System (Bio-Rad company), levels of the cytokines present in the skin tissue was measured based on a qPCR (quantitative PCR) method.

[5] = system: IL-4, IL-13 and IL-2 mRNA; assay: qPCR of inflammatory cytokine mRNA in ear skin tissue of dermatitis-induced mice; format: in vivo, mouse; settings: FIG. 6A to 6C
Excerpt: Inflammatory cytokines most associated with the development of dermatitis, such as atopic dermatitis are known as IL-4 and IL-13 which are secreted primarily from Th2 T cells. In order to further identify the anti-inflammatory effect of the acylhydrazone derivative compound in mice with dermatitis induced by oxazolone in Example 4, an ear skin tissue was collected to quantify the mRNA levels of IL-2 secreted from Th2 T cells, along with those of IL-4 and IL-13.
Specifically, ear skin tissues were collected from dermatitis-induced mice prepared in Example 4 and crushed using a tissue disruptor. The crushed tissue powder was dissolved in a solution of Trizol reagent (Sigma company), and RNA was extracted using an RNeasy mini kit (Qiagen company). After reverse transcription of the extracted RNA with a cDNA using ImProm-II™ Reverse Transcription kit (Promega company), a level of cytokines present in a skin tissue was measured using a CFX96 Real-Time PCR Detection System (Bio-Rad company) via a qPCR method.

[6] = system: mouse model having dermatitis induced by oxazolone (ear); assay: Visual identification of dermatitis inhibition, mice with oxazolone-induced dermatitis in ear; format: in vivo; settings: 20 μl at 500 nM, total 5 times, 30 minutes after oxazolone, FIG. 4
Experimental: Specifically, 150 μl of 3% concentration of oxazolone was applied to an abdominal skin of a 6-week-old mouse to induce an immune response. 20 μl of the same compound diluted to 0.5% concentration was applied to the mouse's ear, total 5 times a day to induce an inflammatory reaction. Thereafter, at 30 minutes after the oxazolone application, 20 μl of each of the acylhydrazone derivative compounds was applied thereto at a concentration of 500 nM and total 5 times.
Moreover, the negative control treated only with ethanol as a solvent and the positive control treated only with oxazolone were reflected in the experiment. The number of mice in each test group was maintained at 10 or more, and the experiment was repeated twice.

[7] = system: phosphorylation of p65 (RelA), NF-κB signaling pathway; assay: Western blot of phosphorylated p65 in RAW macrophage cell line (NF-κB signaling pathway); format: cell-based, mice; settings: RAW cells, with NF-κB inducing factors (tumor necrosis factor-α, lipopolysaccharide, or the like), 12 to 24 hours; Western blotting; FIG. 9
Experimental: To further identify the mechanism of action involved in the anti-inflammatory effect by the acylhydrazone derivative compound, RAW cell lines as mice-derived macrophage immune cell lines were incubated. We observed the effect of the compound according to the present disclosure on NF-κB (nuclear factor kappa-light-chain-enhancer of activated B cells) signaling pathway involved in the production of inflammatory cytokines. The NF-κB signaling pathway is involved in inflammatory reactions. In particular, it is known that when phosphorylation of p65 (RelA) is induced, phosphorylated p65 moves to the nucleus of immune cells and induces an expression of cytokines that cause inflammatory reactions.
Specifically, after incubating a predetermined amount of RAW cells (5×10^5 to 10×10^5 cells/well for a 6-well plate) in DMEM medium (containing 10% fetal calf serum), WCI-1004, WCI-1015, and WCI-1031 compounds together with factors (tumor necrosis factor-α, lipopolysaccharide, or the like) inducing the NF-κB signal transduction were applied thereto for 12 to 24 hours. A proteolytic inhibitor and a dephosphorylation inhibitor was added to RIPA lysis and extraction buffer (Thermofisher company). Protein was extracted from the RAW cells. The Western blotting process used a method commonly used in the technical field to which the present disclosure belongs, and an antibody specific to phosphorylated p65 employed a product from Cell Signaling Technology company.

Compound	entire thickness of the skin [1]	thickness of the epithelium [1]	expression levels of K14 and K1 (epithelial hyperplasia) (K14 and K1 mRNA)	skin condition (visual), skin inflammatory response [2]	mRNA expression levels of K14, K1 and FLG (epithelial hyperplasia) [3]	inflammatory cytokine expression compared with Cyclosporine A group [4]	expression level of the inflammatory cytokine (IL-4, IL-13, IL-2 mRNA) in skin tissue [4]	level of cytokine expression (IL-4, IL-13, IL-2 mRNA) in ear skin tissue [5]	skin condition (visual), skin inflammatory reaction [6]	phosphorylation of p65 (RelA) [7]
Cc1c(/C=N/NC(=O)c2cc3c(ccc4ccccc43)o2)c2ccccc2n1C [WCI-1015]	reduced to a thickness very similar to that of the negative control	reduced to a thickness very similar to that of the negative control	restored to a normal level	skin conditions very similar to those of the negative control	restored to normal levels	lower levels of inflammatory cytokine expression than that in the skin tissue of the test group treated with Cyclosporine A	significantly reduced	50 % of the cytokine expression level of the positive control	a skin condition very similar to that of the negative control	effectively suppressed
CCOC(=O)Cn1c(C)c(/C=N/NC(=O)c2cc3c(ccc4ccccc43)o2)c2ccccc21 [WCI-1004, ethyl(2-methyl-3(E)-{[(naphtho[2,1-b]furan-2-ylcarbonyl)hydrazono]methyl}-1H-indole-1-yl)acetate]	reduced to a thickness very similar to that of the negative control	reduced to a thickness very similar to that of the negative control	restored to a normal level	skin conditions very similar to those of the negative control	restored to normal levels	lower levels of inflammatory cytokine expression than that in the skin tissue of the test group treated with Cyclosporine A	significantly reduced	50 % of the cytokine expression level of the positive control	a skin condition very similar to that of the negative control	effectively suppressed
COC(=O)Cn1c(C)c(/C=N/NC(=O)c2cc3c(ccc4ccccc43)o2)c2ccccc21 [WCI-1031, methyl(E)-2-(2-methyl-3-((2-(naphtho[2,1-b]furan-2-carbonyl)hydrazono)methyl)-1H-indole-1-yl)acetate]	reduced to a thickness very similar to that of the negative control	reduced to a thickness very similar to that of the negative control	restored to a normal level	skin conditions very similar to those of the negative control	restored to normal levels	lower levels of inflammatory cytokine expression than that in the skin tissue of the test group treated with Cyclosporine A	significantly reduced	50 % of the cytokine expression level of the positive control	a skin condition very similar to that of the negative control	effectively suppressed
